Converted amounts (≈) assume the structure as drawn. “Also recorded” adds a separate entry of the source. Like-named read-outs stand apart in the source and are kept apart here. Where a SMILES comes first, the peptide text is derived from it.
What was measured:
[1] = cited from earlier work
[2] = system: EpiIntestinal™ microtissues; experiment: Cytotoxicity / relative cell count (RCC) of dissociated EpiIntestinal microtissues; conditions: for Cytotoxicity / cell viability (result in words) / Cytotoxicity: 10-day exposure; for Cytotoxicity / cell viability (result in words): tested doses
[3] = published genotoxic profile; ref Kirkland et al., 2016; EFSA; cited from earlier work
[4] = system: EpiIntestinal™ microtissues; experiment: RICyt assay: micronuclei (MN) cytome scoring in EpiIntestinal microtissues after 10-day repeated apical exposure
[5] = Test material solubility limit for top test concentration; assay type: physicochemical; conditions: for solubility: read-out: Concentration above which test material is insoluble (top test concentration)
[6] = system: EpiIntestinal™ microtissues
[7] = system: topoisomerase II; parameters: method as in Maralhas et al., 2006; conditions: ref Maralhas et al., 2006; cited from earlier work
[8] = system: Caco-2; conditions: ref Schrenk et al., 2022; cited from earlier work
[9] = system: EpiIntestinal™ microtissues; remark: listed apart in the source
[10] = system: EpiIntestinal™ microtissues; conditions: cited from earlier work
[11] = published genotoxic profile, ref Kirkland et al., 2016, EFSA
[12] = 10-day exposure, relative to solvent control and historical negative control range (≤2.4 %)
[13] = 10-day exposure, positive = significant, dose-dependent %MN increase above historical negative range (>2.4 %)

| Compound | In vivo genotoxicity tests [1, 11] | Cytotoxicity / cell viability (result in words) [2] | In vitro genotoxicity tests [3] | Karyorrhectic cells (cytome analysis) ([4]; 10-day exposure) | %MN induction (result in words) [4, 12] | In vivo genotoxicity tests ([1]; in vivo) | also measured |
| --- | --- | --- | --- | --- | --- | --- | --- |
| O=Cc1ccc(CO)o1 [5-Hydroxymethyl furfural, 5-Hydroxymethylfurfural] | - MN | Cytotoxicity was observed with increasing doses | + Comet and SCE - for MN | increase in karyorrhectic cell population though not statistically significant | consistently low without exceeding the historical negative range |  | RICyt outcome (genotoxic classification) [4, 13]: Negative; RICyt outcome (genotoxic classification) ([4]; 10-day exposure, positive = significant, dose-dependent %MN increase above historical negative range (>2.4 %), listed as 5-HMF): clear negative |
| COC(=O)[C@H](Cc1ccccc1)NC(=O)[C@@H](N)CC(=O)O [Aspartame] (H-Asp-Phe-OMe) | - MN, comet and CA | did not produce significant %MN and cytotoxicity | - CA and MN - SCE |  | did not produce significant %MN |  | RICyt outcome (genotoxic classification) [4, 13]: Negative; RICyt outcome (genotoxic classification) ([4]; 10-day exposure, positive = significant, dose-dependent %MN increase above historical negative range (>2.4 %), listed as aspartame): clear negative |
| COc1cc(/C=C/C(=O)CC(=O)/C=C/c2ccc(O)c(OC)c2)ccc1O [Curcumin] |  |  |  | increase in karyorrhectic cells | no significant formation of MN |  | Cytotoxicity ([2]; at higher doses / top two concentrations): 15–20%; solubility ([5]; in solvent/culture media): 50 µg/mL (≈ 136 µM) |
| CCOS(C)(=O)=O [Ethyl methanesulfonate] |  |  |  |  |  | + MN, comet and CA | Cytotoxicity / cell viability (result in words) [6]: no observable cytotoxicity |
| C=CCc1ccc(O)c(OC)c1 [Eugenol] |  | cytotoxicity observed in the tested doses |  | consistent increase in karyorrhectic cell population |  | + MN only at very high doses. Equivocal | Genotoxicity in vivo ([1]; in vivo): genotoxic positive; Topoisomerase II activity [7]: could inhibit topoisomerase II activity; %MN induction (result in words) ([4]; 10-day exposure, relative to solvent control and historical negative control range (≤2.4 %), listed as EUG): very close to the established 95 % upper confident limits; RICyt outcome (genotoxic classification) [4, 13]: Equivocal |
| Nc1nc(N)nc(N)n1 [Melamine] |  | No genotoxicity nor cytotoxicity were detected |  |  | not significant and below the historical negative range |  | solubility ([5]; in solvent/culture media): 500 µg/mL (≈ 3960 µM) |
| CC(C)=CCC/C(C)=C/CC/C(C)=C/CC/C(C)=C/CC/C(C)=C/CC/C(C)=C/CC/C(C)=C/CC1=C(C)C(=O)c2ccccc2C1=O [Menaquinone 7] |  | no significant MN induction nor cytotoxicity |  |  | no significant MN induction |  | Concentration above which test material is insoluble (top test concentration) ([5]; in solvent/culture media): 1000 µg/mL; Other nuclear anomalies (cytome analysis) ([4]; 10-day exposure): not detected |
| C[C@H]1C(=O)O[C@@H]2CCN3CC=C(COC(=O)[C@](C)(O)[C@]1(C)O)[C@H]23 [Monocrotaline] |  |  |  |  |  | + DNA adduct, DNA crosslinking and MN | Cytotoxicity / cell viability (result in words) [6]: without obvious cytotoxicity; Gut permeability [8]: moderate gut permeability; %MN increment ([9]; human): 2.53% |
| CCN(N=O)C(N)=O [N-Ethyl-N-nitrosourea] | + CA, MN, comet |  | + MN, CA, MLA, HPRT mutations and UDS | non-significant increase in karyorrhectic cells | statistically significant increases in MN in a dose dependent manner |  | Cytotoxicity ([2]; across tested concentrations (ENU up to 150 µg/ml; GA up to 25 µg/ml)): ≤ 15%; %MN induction (result in words) ([4]; 10-day exposure, relative to solvent control and historical negative control range (≤2.4 %), listed as ENU): positive induction of MN |
| CC(=O)O[C@H]1C(=O)[C@@]2(C)[C@H]([C@H](OC(=O)c3ccccc3)[C@]3(O)C[C@H](OC(=O)[C@H](O)[C@@H](NC(=O)c4ccccc4)c4ccccc4)C(C)=C1C3(C)C)[C@]1(OC(C)=O)CO[C@@H]1C[C@@H]2O [Paclitaxel] | + MN in bone marrow and liver | decrease in cell viability at the top two exposed doses | + MN, polyploidy in a CA test and in MLA | non-significant but dose dependent increase in karyorrhectic cell population | statistically significant increase in %MN; also recorded: positive induction of MN |  | RICyt outcome (genotoxic classification) [4, 13]: true positive |
| c1ccc2c(c1)cc1ccc3cccc4ccc2c1c34 [benzo(a)pyrene] |  |  |  |  |  |  | MN induction / genotoxicity in RICyt platform [10]: genotoxicity was successfully detected |
| CC(C)[C@@H]1CC[C@@H](C)C[C@H]1O [d,l-Menthol, D,L-MENTHOL] |  |  |  |  |  | - | Cytotoxicity / cell viability (result in words) [6]: no significant impact on cell viability; Concentration above which test material is insoluble (top test concentration) [5]: 500 µg/mL; %MN induction (result in words) [9]: low level of MN which fell within 95 % confident limit of the historical negative control |
| CC[C@]1(O)C[C@@H]2CN(CCc3c([nH]c4ccccc34)[C@@](C(=O)OC)(c3cc4c(cc3OC)N(C)[C@H]3[C@@](O)(C(=O)OC)[C@H](OC(C)=O)[C@]5(CC)C=CCN6CC[C@]43[C@@H]65)C2)C1 [vinblastine] |  |  |  |  |  |  | MN induction / genotoxicity in RICyt platform ([10]; previous publication, ref Lim et al., 2022): positive induction of MN |
| C/C=C\c1cc(OC)c(OC)cc1OC [β-asarone] | MN negative |  | + MN, comet and SCE |  |  |  | Cytotoxicity / cell viability (result in words) [6]: Increases in cytotoxicity at the top two doses; RICyt outcome (genotoxic classification) [9]: Negative |
| Aflatoxin B1 |  |  |  |  |  | + MN, CA, UDS − comets | Loss/reduction in cell viability [2]: ~40%; %MN induction (result in words) [4]: significant and dose-dependent formation of MN; RICyt outcome (genotoxic classification) [4]: genotoxicity was successfully detected; also recorded: Positive |
